Columns and labels:
[1] = Cellular viability of HepG2 cells (MTT and neutral red uptake); assay type: cell-based; details: human, HepG2 cells; MTT method, 72 h
Description: (§1) Cellular viability was determined using two distinct methods—3-(4,5-dimethylthiazol-2-yl)-2,5-diphenyl-2H-tetrazolium bromide (MTT) and neutral red uptake (NRU). The cell lines employed in the evaluation were Vero and HepG2 cells. Both cell lines were grown with Dulbecco’s Modified Eagle Medium (DMEM-Gibco, Grand Island, NY, USA) and supplemented with 10% fetal bovine serum by Invitrogen, 1% antibiotics (penicillin and streptomycin) by Gibco, and 0.1% fungizone by Gibco. For the MTT and NRU assays, Vero (2 × 10^3 cells/well) and HepG2 (4 × 10^3 cells/well) cells were seeded in 96-well culture plates and incubated overnight. The N-(4-(benzyloxy)benzyl)-4-aminoquinolines were diluted at concentrations of 3 µM using DMSO 1% and were incubated with the cell lines for 72 h at 37 °C. In the MTT investigation, after incubation for 72 h at 37 °C under 5% CO2, the cells were incubated with MTT solution (5 mg/mL, Sigma-Aldrich, St. Louis, MO, USA) for 4 h. The formazan crystals were solubilized in 100 µL of DMSO. An EZ Read 400 microplate reader (Biochrom, Cambridge, UK) was used to measure the absorbance at 570 nm. The mean absorbance of negative control wells was established as the maximum viability and the values of treated cells were calculated as the percentage of vehicle control (1% DMSO). The precipitated purple formazan crystals were directly equivalent to the number of live cells with active mitochondrial metabolism. In the NRU investigation, after 72 h of cell incubation, PBS was used to wash the cells and 200 µL of neutral red dye solution (25 µg/mL, Sigma-Aldrich, St. Louis, MO, USA) prepared in serum-free medium was added to the plate and incubated for 3 h at 37 °C under 5% CO2. Cells were washed with PBS followed by the addition of 100 µL of desorb solution (ethanol/acetic acid/water, 50:1:49) for 30 min with smooth homogenization to extract neutral red dye from the viable cells. An EZ Read 400 microplate reader was operated to measure the absorbance at 562 nm, and the cell viability was attributed as a percentage, considering the vehicle control cell (1% DMSO) as maximum cell viability.

HepG2 cells = test: as above; assay type: cell-based; details: for HepG2 cell viability in words: 72 h at concentrations similar to MIC, MTT and neutral red; for CC50: neutral red method, 72 h
Description: as §1

in vitro = in vitro ADME; details: for Papp at 5 h, 10 µM: PAMPA, pH 7.4
Description: The experiment was carried out by the Center for Applied Mass Spectrometry (CEMSA), São Paulo, Brazil. In brief, the Parallel Artificial Membrane Permeability Assay (PAMPA) assay consists of quantifying the test compound (via HPLC–MS/MS) after an incubation period, in two solutions separated by an artificial lipid membrane. The result of this test is expressed in units of diffusion rate (permeation). The procedure comprised the following steps: (1) preparing the membrane, which contains lipids, with specific activating solutions, creating a hydrophobic surface that simulates the intestinal epithelial cell; (2) adding the test compound at a concentration of 10 µM to the donor aqueous phase (buffered pH 7.4); (3) after 5 h at room temperature, an aliquot of the solution receptor (buffered at pH 7.4) is removed, in which the compound is transported by passive diffusion, for quantification by HPLC–MS/MS.

[2] = assay type: physicochemical; details: buffer, 24 h, 10 µM
Description: The experiment was carried out by the Center for Applied Mass Spectrometry (CEMSA), São Paulo, Brazil. In brief, the test compounds (10 µM) were incubated at 37 °C for 24 h in the presence of pH-controlled buffer solution at pH 1.2 (simulating the pH of the stomach—0.1 M HCl), pH 7.4 (simulating plasma pH—phosphate buffer) and pH 9.1 (simulating intestinal pH—0.1 M NH4HCO3). Afterward, compounds were quantified by HPLC–MS/MS. Alprenolol drug was used as an analytical control (data not shown). The results were presented as the percentage, comparing the signal at time zero of the assay (100%) with the signal produced by concentrations after the incubation period.

Vero cells = test: Cellular viability of Vero cells (MTT and neutral red uptake); assay type: cell-based; details: for Vero cell viability in words: 72 h at concentrations similar to MIC, MTT and neutral red; for CC50: neutral red method, 72 h
Description: as §1

[3] = as above; assay type: cell-based; details: African green monkey, Vero cells; MTT method, 72 h
Description: as §1

M. tuberculosis H37Rv = test: Minimum inhibitory concentration (resazurin microplate); assay type: cell-based, Mycobacterium tuberculosis; details: Mycobacterium tuberculosis; M. tuberculosis H37Rv; 7 days + 48 h resazurin; highest value of three assays
[4] = Metabolic stability in rat liver microsomes; assay type: in vitro ADME; details: for Metabolism rate class: rat microsomes, classes by Clint; for CLint scaled / half-life: rat, microsomes
Description: The experiment was carried out by the Center for Applied Mass Spectrometry (CEMSA), São Paulo, Brazil. In brief, the metabolic stability assay was performed in the presence of rat liver microsomes. Compounds were incubated at 37 °C in a buffered solution containing 1 mg/mL of microsomal protein and nicotinamide adenine dinucleotide […]. The reaction was stopped at different times using acetonitrile. The compound concentration was determined by HPLC–MS/MS at each incubation time (0, 5, 15, and 30 min) and the percentage remaining versus time curve was determined. Verapamil was used as an analytical control (data not shown).

Compound	CC50 at 72 h [1] [nM]	HepG2 cell viability in words (HepG2 cells)	CC50 (HepG2 cells) [nM]	Passive permeability (PAMPA) in words (in vitro)	Papp at 5 h, 10 µM (in vitro) [×10⁻⁶ cm/s]	Chemical Stability pH 1.2, remaining compound [2] [%]	Chemical Stability pH 7.4, remaining compound [2] [%]	Chemical Stability pH 9.1, remaining compound [2] [%]	Vero cell viability in words (Vero cells)	CC50 (Vero cells) [nM]	CC50 at 72 h [3] [nM]	melting point [°C]	MIC (M. tuberculosis H37Rv) [µM]	Metabolism rate class [4]	CLint scaled [4] [mL/min/kg]	half-life [4] [min]
Cc1cc(NCc2ccc(OCc3ccc(Cl)cc3)cc2)c2cc(Br)ccc2n1 [Compound 9n, N-(4-((4-chlorobenzyl)oxy)benzyl)-6-bromo-2-methylquinolin-4-amine]	> 3000	not significantly altered	> 3000	low permeability	0.3	14.9	5.0	13.8	not significantly altered	> 3000	> 3000	184 to 186	2.7	moderate (moderate metabolism rates (47 ≤ Clint ≥ 16))	39	19
Cc1cc(NCc2ccc(OCc3ccc(F)cc3)cc2)c2cc(Br)ccc2n1 [Compound 9o, N-(4-((4-fluorobenzyl)oxy)benzyl) 6-bromo-2-methylquinolin-4-amine]	> 3000	not significantly altered	> 3000	high permeability	3	22.9	7.6	11.1	not significantly altered	> 3000	> 3000	173 to 175	2.8	high (high metabolism rates (Clint > 47))	56	7.9

Reference: publication PMC9027910, “Synthesis and Antimycobacterial Evaluation of N-(4-(Benzyloxy)benzyl)-4-aminoquinolines” (Molecules, 2022)
